We go through 90 molecules from a melting point compilation (Tetko et al.; mined from patent text by program, amines drawn as free bases though some values may be those of a salt).

Usually melting point stands for the temperature of the solid-liquid transition. `O=C(O)c1cnc2cc(C(F)(F)F)ccc2c1Cl` yielded a melting point of 310 °C.

For the molecule `O=C(c1ccc(F)cc1)C1CCN(CC2CSc3ccc(F)cc3C2)CC1` (stereo not given), the melting point was in the range of 98 to 102 °C.

The molecule `OCc1cccc2c1ccn2-c1ccnc(N[C@H]2CC[C@H](O)CC2)n1` returned a melting point of 212 to 213 °C.

Take `Cc1ncn(Nc2cccc(Cl)c2)c1-c1cccc(Cl)c1`: the melting point turned out to be 168 °C.

In turn, `CC(C)S(=O)(=O)c1ccc(Oc2ccc([N+](=O)[O-])c(NCCC#N)c2)c(Cl)c1` came in with a melting point of 140 °C.

`CCc1nn(Cc2cc(=O)[nH]c(N)n2)c(CC)c1Oc1cc(Cl)cc(Cl)c1` gave a melting point of 238 to 240 °C.

In turn, `CC12CCC3c4ccc(N)cc4CCC3C1CCC2O` (stereo not given) showed a melting point of 75 to 77 °C.

In turn, `O=CNc1ccccc1Nc1ccc(C(=O)c2ccccc2)cc1` displayed a melting point of 122 to 124 °C.

In turn, `CC(C)(C)c1cc(CC#Cc2ccc(C(=O)O)c(O)c2)cc(C(C)(C)C)c1O` registered a melting point of 205 to 206 °C.

In turn, `C=Cc1cc(C)cc(C)c1C1=C(O)C2(CCN(OC)CC2)NC1=O` registered a melting point of 198 to 200 °C.

`N#CCCNC(=O)c1n[nH]cc1NC(=O)c1cccc(C(F)(F)F)c1`: the melting point is 188 to 190 °C.

`Brc1cnc2nc(N3CCN(CCCCOc4ccccc4)CC3)nn2c1` showed a melting point of 122 to 123 °C.

On to `COc1ccc(CCNCC(O)c2ccc(OCc3ccccc3)c(OCc3ccccc3)c2)cc1OC` (stereo not given), for which the melting point lay within 79 to 81 °C.

`COC(=O)c1ccc(S(=O)(=O)C(Cn2ccnc2)c2ccccc2OC)cc1` (stereo not given) showed a melting point of 150 to 151 °C.

`COc1ccc(-c2nc(N)ncc2-c2ccc(=O)[nH]n2)cc1OC` yielded a melting point of 225 °C.

`CC(C)C[C@H](NC(=O)OCC1c2ccccc2-c2ccccc21)C(=O)N[C@H]1CCOC1OCc1ccc2ccccc2c1` (stereo not given in full) had a melting point of 79 to 80 °C.

Molecule `CCOc1cc2c(O)c(C)cnc2nc1C` gave a melting point of 238 to 242 °C.

With `CC(Nc1nc(-c2ccc([N+](=O)[O-])cc2)nc2[nH]ccc12)c1ccccc1` (stereo not given), the melting point was greater than 250 °C.

`O=C(O)c1ccc(-c2ncn(-c3ccc(OC(F)(F)C(F)(F)F)cc3)n2)cc1` returned a melting point of 225 °C.

Turning to `CCONC(=O)c1cccc(NC(C)=C2C(=O)OC(=O)C(C(C)=O)=C2O)c1`, the melting point is 162 to 164 °C.

The molecule `CCN(CC)c1nc(Cl)nc2c(SC)ncnc12` yielded a melting point of 90 to 91 °C.

As for `CC(=O)OC1CC2CCC3C(CCC4(C)C(O)C(N5CCCCC5)CC34)C2(C)CC1N1CCOCC1` (stereo not given), the melting point was 148 to 152 °C.

Molecule `CC(C)(C)c1cc(C(=O)c2cccs2)cc(CN2CCOCC2)c1O` had a melting point of 148 °C.

The molecule `O=C(O)c1ccc([N+](=O)[O-])cn1` showed a melting point of 210 to 211 °C.

Regarding `O=C1CCC2(c3ccc(-c4ccc(OC(F)(F)F)cc4)cc3)OCC(c3ccccc3)N12` (stereo not given), the melting point was 104 °C.

`Cc1cc(Nc2nc(Cl)nc(Nc3cc(C)c(O)c(C(C)(C)C)c3)n2)cc(C(C)(C)C)c1O`: the melting point stood at 214 °C.

On to `COc1ccc(CCNC(=O)C2=C(C(=O)Nc3cc(OC4CCCC4)c(Cl)cc3F)CCCC2)cc1OC`, for which the melting point is 159 to 161 °C.

For the molecule `c1ccc2c(c1)CCc1c(N3CCN(Cc4c[nH]c5ncccc45)CC3)n[nH]c1-2`, the melting point lay in the range of 245 to 247 °C.

For `COc1ccc(-c2cc(=O)n(Cc3cccnc3)nc2-c2ccc(OC)cc2)cc1`, the melting point was 167 to 168 °C.

`CCOC(=O)CN(CP(=O)(ONN1CCOCC1)ONN1CCOCC1)C(=O)C(F)(F)F`: the melting point was 69 to 74 °C.

In the case of `Oc1cccc2c1CC(n1cc[nH]c1=S)CC2` (stereo not given), the melting point lay within 274 to 276 °C.

On to `CCCc1nn(C)c2c(Oc3ccc(F)cc3)nc(-c3ccccc3)nc12`, for which the melting point was 126 to 128 °C.

The molecule `CC1(C)CNc2nc3cnc4ccccc4c3n2C1` came in with a melting point of 326 to 330 °C.

`COc1ccc(-n2c(=O)c(-c3ccccc3)nc3ccccc32)cc1` returned a melting point of 199 to 202 °C.

Turning to `CC(C)n1c(N2CCN(C)CC2)nc2cc(Cl)c(N)cc21`, the melting point is 192 to 193 °C.

The molecule `CCCCc1c(C(=O)N(C)Cc2ccc3c(Br)c(O)ccc3c2)oc2ccccc12` gave a melting point of 53 to 56 °C.

The molecule `COc1ccc(C)cc1C(CCO)c1cc(C)ccc1OC` yielded a melting point of 117 °C.

On to `CC(C)C1Nc2ccc(S(=O)(=O)N3CCCCC3)cc2S(=O)(=O)N1` (stereo not given), for which the melting point was 237 to 239 °C.

`C#CC(O)(C(Oc1ccc(F)cc1)n1cncn1)C(C)(C)C` (stereo not given) showed a melting point of 134 to 135 °C.

Regarding `CCOC(=O)c1cn(CCBr)c2nc(N3CCN(C(C)=O)CC3)ncc2c1=O`, the melting point is 202 to 204 °C.

Take `COC(=O)C(=O)c1cc2ccccc2n1S(=O)(=O)c1ccccc1`: the melting point was 111 to 112 °C.

`COc1ccc(Cc2nc3c(cnn3C(CCCc3ccccc3)C(C)=O)c(=O)[nH]2)cc1` (stereo not given) displayed a melting point of 129 °C.

For `CCOC(=O)c1c(C)cc2c(c1C)C(=O)OC2(C)O` (stereo not given), the melting point fell in the range of 118 to 120 °C.

Turning to `Cn1c(C(F)(F)F)cc(=O)n(-c2cc(OCOc3ccc(Cl)cc3)c(Cl)cc2F)c1=O`, the melting point lay in the range of 120 to 122 °C.

Regarding `CCOC(=O)C1(C)C=C(Cl)C2=NCN(C)C2=N1` (stereo not given), the melting point lay in the range of 56 to 58 °C.

Regarding `COc1ccc(C(=O)C2CCN(C(C)=O)CC2)cc1`, the melting point was 102 to 105 °C.

`Cn1c(=O)c(C#N)c(Cl)c2cc(F)ccc21`: the melting point was 258 °C.

In turn, `O=C(Nc1cccc2c(OC(=O)c3c(Cl)cccc3Cl)ccnc12)c1c(Cl)cccc1Cl` had a melting point of 248 °C.

The molecule `Cc1[nH]cc2c(=O)n(-c3ccc(F)cc3)nc-2c1-c1ccccc1` showed a melting point of 303 to 317 °C.

With `CC(C)(C)c1ncc(C=O)cn1`, the melting point was in the range of 82 to 83 °C.

`COc1ccc(S(=O)(=O)C2(C(=O)O)CCN(C(C)C)CC2)cc1` came in with a melting point of 204 °C.

As for `NC=C1C(=O)c2ccccc2OC1c1ccccc1` (stereo not given), the melting point lay in the range of 149 to 152 °C.

For `CC(C)Oc1nccc2c1C(c1ccccc1C(F)(F)F)c1c(cc[nH]c1=O)N2` (stereo not given), the melting point amounted to 315 °C.

In turn, `CCOc1cc(CCCC2OC(=O)NC2=O)ccc1OCc1coc(-c2ccccc2)n1` (stereo not given) yielded a melting point of 119 to 120 °C.

Turning to `COc1cccc(P(=O)(c2ccc(C)cc2)c2ccc(C)cc2)c1`, the melting point was 96 to 98 °C.

Take `N#Cc1ccc(F)c(C(c2cc(N)ncc2Cl)S(=O)(=O)c2ccc(Cl)cc2)c1` (stereo not given): the melting point is greater than 220 °C.

`CC(COc1ccccc1)C1SC(=O)NC1=O` (stereo not given) registered a melting point of 106 to 108 °C.

Consider `O=C(Nc1cccc2c(Cn3ccnc3)ccnc12)c1c(Cl)cccc1Cl`, for which the melting point is greater than 250 °C.

For the molecule `CS(=O)(=O)NC(=O)NCCCCC1CCSS1` (stereo not given), the melting point fell in the range of 125 to 127 °C.

As for `CC1(c2ccc(O)cc2)CC1(Cl)Cl` (stereo not given), the melting point was 125 to 126 °C.

`OC(c1ccc(F)cc1)(c1ccc(F)cc1)C1CCN(CCCOc2ccc(Cl)cc2)CC1` registered a melting point of 92 to 93 °C.

Regarding `CCCN(c1ncnc2c1ncn2C1OC(CO)C(O)C1O)n1cccc1` (stereo not given), the melting point lay within 136 to 138 °C.

The molecule `O=C(CN1CCSCC1)N1CCC(C2c3ccc(Cl)c(Br)c3CCc3cc(Br)cnc32)CC1` (stereo not given) had a melting point of 172 to 174 °C.

`COCCOCOc1ccc(-c2nnc(S)o2)cc1OCOCCOC` registered a melting point of 84 °C.

In turn, `COCCOCCCCC(=O)c1ccc(Br)cc1` gave a melting point of 25.5 to 26.5 °C.

`CC=Cc1cnn(C)c1S(=O)(=O)NC(=O)Nc1nc(OC)cc(OC)n1`: the melting point lay in the range of 154 to 156 °C.

On to `COP(=O)(OC)C1OC(=O)c2ccccc21` (stereo not given), for which the melting point is 95 to 96.5 °C.

Consider `COC(=O)C(O)(c1ccc(C)cc1)c1ccc(C)cc1`, for which the melting point fell in the range of 83 to 84 °C.

In turn, `CCOC(=O)Cc1cc2ccc(O)cc2oc1=O` had a melting point of 168 to 170 °C.

With `O=C1CNc2ccccc2N1c1ccc(Cl)cc1`, the melting point is 196 to 199 °C.

Turning to `CN(C)c1ccc(C2N(c3ccccc3)CCN2c2ccccc2)c(O)c1`, the melting point was in the range of 161 to 165 °C.

Turning to `Cc1nc(Cl)c2n1-c1ccccc1C(c1ccccc1F)N(C)C2` (stereo not given), the melting point lay within 156 to 158 °C.

In the case of `CCCC[C@H](NC(=O)[C@H](CC(=O)O)NC(=O)Nc1ccc([N+](=O)[O-])cc1)C(=O)OC`, the melting point lay in the range of 204 to 205 °C.

For the molecule `CCOC(=O)C(C)(C#N)c1cccc(S(=O)(=O)c2ccccc2Cl)c1OC` (stereo not given), the melting point fell in the range of 178 to 179 °C.

Molecule `CCC(CC)C(=O)Nc1nc(C)co1` returned a melting point of 106 °C.

In turn, `O=C1NC(c2ccccc2)C(=O)NC1c1ccccc1` (stereo not given) showed a melting point of 282 to 284 °C.

For the molecule `CCC(=O)Nc1onc2c1c(=O)n(C)c(=O)n2C`, the melting point lay within 150 to 152 °C.

`COc1ccc(S(=O)(=O)n2ccc3ccnc(Nc4ccc(F)cc4)c32)cc1`: the melting point lay within 125 to 127 °C.

As for `Cc1nsc(SCC2=C(C(=O)OC(c3ccccc3)c3ccccc3)N3C(=O)C(N)(N)C3SC2)n1` (stereo not given), the melting point fell in the range of 157 to 159 °C.

As for `CC(C)(C)OC(=O)NC1CCc2ccc(C=O)cc2C1` (stereo not given), the melting point is 98 to 101 °C.

Consider `CC(C)n1cnc2c(N[C@H](CO)c3ccccc3)nc(Cl)nc21`, for which the melting point was 150 to 152 °C.

The molecule `CCCCCCCCCCCCc1nnn(C(C(=O)Nc2c(C(C)C)cccc2C(C)C)c2ccccc2)n1` (stereo not given) came in with a melting point of 93 to 95 °C.

With `CCOc1ccc(C(=O)Nc2ccccc2)cc1N`, the melting point lay in the range of 189 to 190 °C.

With `CC(=O)[C@@H]1CC[C@@H](C)C[C@H]1O`, the melting point lay in the range of 46 to 46.5 °C.

Turning to `CN(C(N)=O)C1CCCc2sccc21` (stereo not given), the melting point was in the range of 152 to 154 °C.

`COCOCc1nc2nc(O)cnc2c(=O)[nH]1` showed a melting point of 224 to 226 °C.

Molecule `Cc1ccc(NC(=O)Nc2ccc(Oc3cc(Cl)ncn3)cc2)cc1` yielded a melting point of 217 to 219 °C.

In turn, `COC1C(O)C(CO)OC1n1cnc2c(NC3CC=CCC3c3cccs3)ncnc21` (stereo not given) registered a melting point of 86 to 89 °C.

`COC(=O)CCS(=O)(=O)c1ccc(NC(C)=O)cc1` returned a melting point of 156 to 158 °C.

`O=C(Oc1ccccc1)N1CCCc2nc3ccccc3c(Cl)c2C1` gave a melting point of 137 °C.
